Values of other authors, collected in publication PMC4336743, “Improved production of sublancin via introduction of three characteristic promoters into operon clusters responsible for this novel distinct glycopeptide biosynthesis” (Microbial Cell Factories, 2015).

How the values were obtained:
proteinases, peptidases = test system: proteinases, peptidases
Description: Proteolytic susceptibility of sublancin should also be considered in various applications such as in treating bacterial–mediated mastitis or bacterial–mediated gastroenteritis. Therefore, a number of bacterial proteases and gastrointestinal digestive enzymes, e.g., P. aeruginosa elastase and S. aureus V8 protease, pepsin and trypsin would certainly be encountered. […] All experiments were performed in vitro; therefore in vivo studies should be conducted prior to clinical ap ...

S. aureus = test system: S. aureus
Description: Antibacterial activity and cytotoxicity of sublancin were also evaluated. […] These findings are consistent with previously reported study and is almost equal to that of nisin that is a common and typical antimicrobial peptide from Lactococcus lactis, and is widely used in clinical and food preservation applications, with MIC of 0.5 mg/L against S. aureus.

Substance | antimicrobial potency after exposure to proteinases, peptidases and heat (proteinases, peptidases) | MIC against S. aureus (S. aureus)
Bovicin HC5 | remarkable antimicrobial potency reduction | –
nisin | – | 0.5 µg/mL
